# Laboratory results taken from patent publication US20260285924A1, “PEPTIDE THERAPEUTICS” (priority 2023, published 2026).
# Experiments:
# [1] = system: A-to-I RNA editing reporter (ADAR) in A375; assay: A-to-I PepTile (REPTILE) screen: A-to-I editing of dsRNA hairpin reporter by NGS; type: cell-based, human; settings: for % A-to-I editing (IFNα): IFNα 6000 U/ml for 48 hours; for % A-to-I editing (Basal): no treatment
# From the text: (§1) FIGS. 12A-12D. A-to-I PepTile screen. (A) Composition of A-to-I PepTile linrary screen, and schematic description of the lentiviral expression vector. (B) Experimental workflow. A375 cells were transduced at low MOI, and then treated or not with IFNα for 48 hrs. RNA was extracted and Peptide_ADARreporter RNA species were amplified and sequenced by NGS. (C) Dot plot of A-to-I PepTile library effect on A-to-I editing with or without IFNα treatment. Red line is the mean A-to-I editing of all the 8088 peptides (>100 read counts) no treatment: 25.75% IFNα: 37.6%. (D) Dot plot of A-to-I PepTile library fitness effect upon IFNα for 48 hrs.
# FIGS. 17A-17F show A-to-I RNA Editing PiTile (REPTILE) screen in A375. (A) A-to-I RNA Editing PiTile (REPTILE) library design consist of fragmentation of all known ADAR1, ADAR2 interactors and all human double stranded RNA-binding protein into 40 amino acid long peptide. This library was then cloned into a lentivirus vector that also encode a DNA-encoded RNA loop reporter (A-to-I Rep) that is edited by ADAR proteins in cells at the RNA level. When the construct is expressed, the RNA loop gets edited on a single Adenosine, while the 40-mer peptide get expressed at the protein level. Then we can measure the impact of the peptide expression on the editing rate of the RNA loop reporter by sequencing (NGS and Sanger). (B) Experimental workflow of REPTILE screen in A375 cell line. Cells were transduced with the REPTILE library, and then treated for 48 hours with IFNα. Following the treatment, RNA was harvested, converted into cDNA and amplicon library containing peptide Identity (barcode) linked to the RNA loop reporter were prepared for NGS. (C) Result of the A375 REPTILE screen in the no treatment condition. Each dot represents a unique peptide that is associated with an A-to-I editing rate that was measured on the RNA loop. (D) Result of the A375 REPTILE screen in the IFNα condition. Each dot represents a unique peptide that is associated with an A-to-I editing rate that was measured on the RNA loop. Red line represent the A-to-I editing mean, Dash blue line represent 2 times the standard deviation of the % A-to-I editing across all the datasets. This cutoff was used to defined peptides hits that modulate RNA A-to-I editing. (E) Peptide A-to-I Inhibitor Hits intersection between no treatment (% A-to-I editing<15%) and IFNα (% A-to-I editing<27%) conditions. (F) Peptide A-to-I Enhancers Hits intersection between no treatment (% A-to-I editing>36%) and IFNα (% A-to-I editing>47%) conditions.
# Provided herein is a screening methodology to measure the effect of small peptide on A-to-I RNA editing in situ and screen thousands of peptides in a single experiment. First, a library of peptides with the potential of impairing A-to-I editing was designed and built. ADAR enzymes edit RNA only on double-stranded RNA structures and via ADAR's double stranded RNA-Binding Domain (dsRBD). […] The A-to-I PepTile library is composed of 19 Human proteins having dsRBD and 34 known protein-protein interactors of ADAR1/2. All these proteins were tiled into 40-mer peptides every 4 amino acids (FIG. 12A). To measure A-to-I editing, a biosensor consisting of a 71 bp dsRNA hairpin structure that gets A-to-I edited at a rate of 25% in A375 melanoma cells, and ~37% upon IFNα treatment was used. This A-to-I editing reporter is fused with DNA sequence encoding for a peptide from the A-to-I PepTile library. The A-to-I PepTile plasmid pool (10304 elements) was used to produced lentiviruses and transduced A375 cells at a low multiplicity of infection (MOI) (FIG. 12B). A part of the infected cells was treated with IFNα at 6000 U/ml for 48 hours, and then bulk RNA of the basal and treated condition was harvested. RNA was then retrotranscribed into cDNA and sequenced by Next-Generation Sequencing (NGS). […]
# A375 cells = assay: A-to-I PepTile screen: fitness effect upon IFNα (PepTile abundance untreated vs treated); type: cell-based, human
# From the text: as §1
# Provided herein is a screening methodology to measure the effect of small peptide on A-to-I RNA editing in situ and screen thousands of peptides in a single experiment. First, a library of peptides with the potential of impairing A-to-I editing was designed and built. ADAR enzymes edit RNA only on double-stranded RNA structures and via ADAR's double stranded RNA-Binding Domain (dsRBD). […] The A-to-I PepTile library is composed of 19 Human proteins having dsRBD and 34 known protein-protein interactors of ADAR1/2. All these proteins were tiled into 40-mer peptides every 4 amino acids (FIG. 12A). To measure A-to-I editing, a biosensor consisting of a 71 bp dsRNA hairpin structure that gets A-to-I edited at a rate of 25% in A375 melanoma cells, and ~37% upon IFNα treatment was used. This A-to-I editing reporter is fused with DNA sequence encoding for a peptide from the A-to-I PepTile library. The A-to-I PepTile plasmid pool (10304 elements) was used to produced lentiviruses and transduced A375 cells at a low multiplicity of infection (MOI) (FIG. 12B). A part of the infected cells was treated with IFNα at 6000 U/ml for 48 hours, and then bulk RNA of the basal and treated condition was harvested. RNA was then retrotranscribed into cDNA and sequenced by Next-Generation Sequencing (NGS). With the sequencing data, the A-to-I editing percentage of the RNA reporter for each PepTile is calculated since both elements are encoded on the same transcript. Moreover, with this screen one can also measure the abundance of the PepTiles between the untreated and treated conditions and determine Fitness score associated to every PepTile. To ensure a robust and more accurate A-to-I editing % estimation a cut-off of 100 read counts was set for each PepTile. […] SEQ ID NOs: 2125-2147 are A-to-I peptide inhibitors and SEQ ID NOs: 2148-2210 are A-to-I activators. In addition, 117 PepTiles were identified that either synergize (SEQ ID NOs: 2211-2243) or protect (SEQ ID NOs: 2244-2327) to IFNα-induced cell death (FIG. 12D and Table 5). These PepTiles are potential new therapeutic agents that can modulate the Interferon pathway. They may be beneficial in treating inflammatory conditions and may also enhance the effectiveness of cancer immunotherapy through synergistic effects.
# [2] = IFNα 6000 U/ml for 48 hours vs untreated
# [3] = A375, PepTile abundance upon IFNα treatment, negative = synthetic lethal, positive = protector
Sequence,% A-to-I editing (IFNα) [1] [%],% A-to-I editing (Basal) [1] [%],Fitness Score IFNα (A375 cells; [2]),Fitness Score IFNα (A375 cells; [3])
MLEQCNTELKKYSHVNKKALDQFVNFSEQKEKLIKRQEELD [SMC3_243],47.01,42.74,-0.61,
MLPERLEVNGRESEEENLNKSEISQVFEIALKRNLPVNFEV [STAU1_42],18.40,11.00,0.46,
MLRYFDEKELELMLCGMQEIDMSDWQKSTIYRHYTKNSKQI [WWP2_185],25.97,13.42,-0.08,
MMGGPLPPHLALKAENNSEVGASGYGVPGPTWDRGANLKDY [DHX9_28],54.35,49.65,1.46,
MNKSEISLVFEIALKRNMPVSFEVIKESGPPHMKSFVTRVS [STAU2_44],23.54,6.78,0.07,
MNMMLFEVVKMGKSAMQSVVDDWIESYKHDRDIALLDLINF [STAG2_21],58.92,43.58,0.65,
MPLRGWPLELLCEKSIGTANRPMGAGEALRRVLECLASGIV [ILF3_62],55.34,39.78,-0.73,
MPVSALHQFAQMQRVQLDLKETVTTGNVMGPYFAFCAVVDG [ADAD1_25],25.66,14.03,0.99,
MPYERQQFESVEWYNNRNQDNYVSWSDSEDDDEDEEIEEKE [DICER1_98],52.37,37.74,-1.79,
MQAHLAMGGGPGPGTDFTSDQADFPDTLFQEFEPPAPRPGL [ADARB2_50],51.37,40.11,0.65,
MQPQTTINKEQFSKRKNDTLDPELFVECTECGRKMHQICVL [EP300_306],20.81,12.58,-0.25,
MQQGTPGMALGSMGSVVKSEASSSPPVVTSSSHSRAPCQAG [SOX2_58],53.74,41.35,-0.36,
MQVEQMEIPPVELPPEEPPNICQLIPELELLPEKEKEKEKE [RAD21_124],48.70,39.15,1.20,
MQVTISVTSPLMREDPSTDPGVEEPQADAGDVLSPKKCLES [ZFR2_183],54.85,40.13,-0.70,
MRFLYSELMKYNSQTAKDSIFEPAKGGEKLQIKKTVSFHLY [ADAR_231],65.21,56.37,0.14,
MRNAEFLTCNIPTSNASNNMVTTEKVENGQEPVIKLENRQE [ADAR_97],51.11,40.12,-1.27,
MRPFQALPREQSPPPPLQTSSGAEVMDVGSGGDGQSELPAE [DGCR8_7],54.04,40.23,0.13,
MRRDHQLREAPDTAEKAKSHLEVPLEENVNRRVLEEGSVEA [CCDC124_27],24.35,12.18,1.71,
MSELNQKRPQYIKAKENTSHKIKKLEAAKKSLQNAQKHYKK [SMC1A_73],23.54,11.31,-0.76,
MSESGNSARSSGISSQNSSTSDGDRSVSSQSSSSVSSQVTT [CDKN2AIP_47],26.81,14.82,-1.31,
MSGTSYSGYEAAVYSAASSYYQQQQQQQKQAAAAAAAAAAT [ZFR_66],49.01,40.81,2.04,2.04
MSILARLDMQRGVHGRLMDNSTSVREAAVELLGRFVLCRPQ [NIPBL_452],50.76,38.35,2.31,2.31
MSKVTRAQIEDTLRRDHQLREAPDTAEKAKSHLEVPLEENV [CCDC124_24],13.63,12.50,-1.31,
MSLLTGLSDSQVRAFRHTSTLAAMKLMTALVNVALNLSIHQ [STAG1_52],58.66,46.34,-0.26,
MSQHRKKEADSVYGEWVPVEKNGEENKDDDNVFSSNLPSEP [SON_53],25.27,14.38,1.03,
MSQVRAFRHTSTLAAMKLMTALVNVALNLSIHQDNTQRQYE [STAG1_54],54.81,43.52,0.28,
MVEKAVSSAAGPLGPGDAVRRVLECVATGTLLTDGPGLQDP [ZFR2_205],54.50,45.00,0.12,
MVGEYSNLEVNASWTKERWNQEFTKHQVLIMTCYVALNVLK [DICER1_31],48.57,37.36,0.94,
MVISTFKKRAVEITGAGPGASSVCNSAPGSGPSSPNSSHST [HDAC5_73],63.84,49.71,0.74,
MVMNLLESAGFSRSNPYYIVKQGKINQMATAPDSQRLKLLR [SMC3_31],54.66,41.67,1.72,
